Measured values taken from patent US11254668B2, “Pyrazolo[1,5-A]pyrazin-4-yl and related derivatives” (Pfizer Inc., priority 2017, dated 2022).
pIC50: −log10 of the molar value.

Tests used:
Type in all cases: biochemical
[1] = target: TYK2 (Homo sapiens (Human), UniProt P29597); experiment: JAK Caliper Enzyme Assay at 1 mM ATP, TYK2
Method in brief: (§1)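 Read-out is Caliper LabChip mobility-shift separation of phosphorylated from unphosphorylated fluorescent peptide after EDTA termination. Each JAK kinase domain (human, recombinant) runs at 1 mM ATP at room temperature, adjusted for 20–30% turnover. Inhibition is normalized to DMSO and positive-control wells and plotted against concentration.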

[2] = target: JAK1 (Homo sapiens (Human), UniProt P23458); experiment: JAK Caliper Enzyme Assay at 1 mM ATP, JAK1
Method in brief: (§2)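 Recombinant human kinase domains phosphorylated a fluorescent synthetic peptide at room temperature, with enzyme level and time tuned to 20% to 30% conversion; EDTA stop buffer ended reactions. Mobility-shift separation gave percent product from peak heights, normalised to DMSO and positive controls, and IC50s came from concentration–effect curves.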

[3] = target: JAK2 (Homo sapiens (Human), UniProt O60674); experiment: JAK Caliper Enzyme Assay at 1 mM ATP, JAK2
Method in brief: as §1

[4] = target: JAK3 (Homo sapiens (Human), UniProt P52333); experiment: JAK Caliper Enzyme Assay at 1 mM ATP, JAK3
Method in brief: as §2

Chain of TYK2 (P29597 897-1176): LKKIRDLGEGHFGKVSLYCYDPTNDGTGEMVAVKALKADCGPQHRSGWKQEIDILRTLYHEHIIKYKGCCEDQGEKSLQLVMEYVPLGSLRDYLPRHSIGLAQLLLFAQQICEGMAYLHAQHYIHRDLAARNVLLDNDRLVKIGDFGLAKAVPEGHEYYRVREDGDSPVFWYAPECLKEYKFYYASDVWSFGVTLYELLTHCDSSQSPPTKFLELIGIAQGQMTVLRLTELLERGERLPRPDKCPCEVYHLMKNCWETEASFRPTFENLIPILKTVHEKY
Chain of JAK1 (P23458 875-1153): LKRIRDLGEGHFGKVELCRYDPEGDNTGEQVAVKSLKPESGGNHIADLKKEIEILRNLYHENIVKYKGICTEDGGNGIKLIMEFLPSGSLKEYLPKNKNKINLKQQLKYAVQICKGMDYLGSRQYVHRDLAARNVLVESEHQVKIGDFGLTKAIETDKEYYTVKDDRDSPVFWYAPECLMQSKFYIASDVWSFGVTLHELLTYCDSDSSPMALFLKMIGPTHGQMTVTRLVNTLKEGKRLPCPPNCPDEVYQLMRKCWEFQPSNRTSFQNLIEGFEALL
Chain of JAK2 (O60674 849-1124): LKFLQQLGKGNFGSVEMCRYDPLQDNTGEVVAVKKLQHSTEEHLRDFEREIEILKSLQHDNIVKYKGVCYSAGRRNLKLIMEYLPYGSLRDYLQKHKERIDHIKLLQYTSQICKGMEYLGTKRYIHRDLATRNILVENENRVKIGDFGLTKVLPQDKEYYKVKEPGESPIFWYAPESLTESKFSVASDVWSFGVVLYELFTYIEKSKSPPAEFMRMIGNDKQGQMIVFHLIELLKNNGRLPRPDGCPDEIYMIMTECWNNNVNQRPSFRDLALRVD
Chain of JAK3 (P52333 822-1111): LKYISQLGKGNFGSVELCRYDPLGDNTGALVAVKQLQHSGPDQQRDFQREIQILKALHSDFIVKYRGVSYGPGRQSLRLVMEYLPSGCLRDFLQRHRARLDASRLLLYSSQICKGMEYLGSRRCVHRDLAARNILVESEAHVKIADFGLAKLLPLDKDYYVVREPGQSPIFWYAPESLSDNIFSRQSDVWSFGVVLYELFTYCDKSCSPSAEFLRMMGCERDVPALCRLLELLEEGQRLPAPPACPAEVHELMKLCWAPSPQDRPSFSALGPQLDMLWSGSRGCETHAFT

For `Cc1cc(-c2cc3ncccc3c(-c3ccn([C@]4(CC#N)C[C@@H](C#N)C4)n3)n2)nn1C` [Example 58, trans-3-(cyanomethyl)-3-{3-[7-(1,5-dimethyl-1H-pyrazol-3-yl)-1,6-naphthyridin-5-yl]-1H-pyrazol-1-yl}cyclobutanecarbonitrile], the pIC50 [1] was 7.47, the pIC50 [2] was 5.13 and the pIC50 [3] was 6.29. For the same compound, the pIC50 [4] was < 5.00.

Work on `Cc1cc(-c2cc3ncccc3c(-c3ccn([C@]4(CC#N)C[C@H](C#N)C4)n3)n2)nn1C` [Example 59, cis-3-(cyanomethyl)-3-{3-[7-(1,5-dimethyl-1H-pyrazol-3-yl)-1,6-naphthyridin-5-yl]-1H-pyrazol-1-yl}cyclobutanecarbonitrile] yielded a pIC50 [1] of 7.80, a pIC50 [2] of 6.06 and a pIC50 [3] of 7.04. The pIC50 [4] was < 5.00.

Work on `Cn1nc(CO)cc1-c1cc2ncccc2c(-c2ccn([C@]3(CC#N)C[C@@H](C#N)C3)n2)n1` [Example 60, trans-3-(cyanomethyl)-3-(3-{7-[3-(hydroxymethyl)-1-methyl-1H-pyrazol-5-yl]-1,6-naphthyridin-5-yl}-1H-pyrazol-1-yl)cyclobutanecarbonitrile] yielded a pIC50 [1] of 6.72, a pIC50 [2] of 5.41 and a pIC50 [3] of 6.04. The pIC50 [4] was < 5.00.

Compound `Cn1nc(CO)cc1-c1cc2ncccc2c(-c2ccn([C@]3(CC#N)C[C@H](C#N)C3)n2)n1` [Example 61, cis-3-(cyanomethyl)-3-(3-{7-[3-(hydroxymethyl)-1-methyl-1H-pyrazol-5-yl]-1,6-naphthyridin-5-yl}-1H-pyrazol-1-yl)cyclobutanecarbonitrile] has a pIC50 [1] of 7.41, a pIC50 [2] of 6.28 and a pIC50 [3] of 6.91. The pIC50 [4] was < 5.00.

For `CCN1CC(CC#N)(n2ccc(-c3nc(-c4cc(N)n(C)n4)cc4ncccc34)n2)C1` [Example 64, (3-{3-[7-(5-amino-1-methyl-1H-pyrazol-3-yl)-1,6-naphthyridin-5-yl]-1H-pyrazol-1-yl}-1-ethylazetidin-3-yl)acetonitrile], the pIC50 [1] was 6.36, the pIC50 [2] was < 5.00 and the pIC50 [3] was 5.23. For the same compound, the pIC50 [4] was < 5.00.

`Cn1nc(-c2cc3ncccc3c(-c3ccn([C@]4(CC#N)C[C@](C)(C#N)C4)n3)n2)cc1N` [Example 67, cis-3-{3-[7-(5-amino-1-methyl-1H-pyrazol-3-yl)-1,6-naphthyridin-5-yl]-1H-pyrazol-1-yl}-3-(cyanomethyl)-1-methylcyclobutanecarbonitrile] showed a pIC50 [1] of 7.41, a pIC50 [2] of 5.66 and a pIC50 [3] of 6.61. The pIC50 [4] was < 5.00.

`Cn1nc(-c2cc3ncccc3c(-c3ccn([C@]4(CC#N)C[C@@](C)(C#N)C4)n3)n2)cc1N` [Example 68, trans-3-{3-[7-(5-amino-1-methyl-1H-pyrazol-3-yl)-1,6-naphthyridin-5-yl]-1H-pyrazol-1-yl}-3-(cyanomethyl)-1-methylcyclobutanecarbonitrile] was tested, and the pIC50 [1] was 5.80, the pIC50 [2] was < 5.00 and the pIC50 [3] was 5.36. For the same compound, the pIC50 [4] was < 5.00.

`CNc1cc(-c2cc3ncccc3c(-c3ccn([C@]4(CC#N)C[C@H](C#N)C4)n3)n2)nn1C` [Example 69, cis-3-(cyanomethyl)-3-(3-{7-[1-methyl-5-(methylamino)-1H-pyrazol-3-yl]-,6-naphthyridin-5-yl}-1H-pyrazol-1-yl)cyclobutanecarbonitrile] was tested, and the pIC50 [1] was 6.80, the pIC50 [2] was 5.47 and the pIC50 [3] was 6.25. For the same compound, the pIC50 [4] was < 5.00.

`CNc1cc(-c2cc3ncccc3c(-c3ccn([C@]4(CC#N)C[C@@H](C#N)C4)n3)n2)nn1C` [Example 70, trans-3-(cyanomethyl)-3-(3-{7-[1-methyl-5-(methylamino)-1H-pyrazol-3-yl]-1,6-naphthyridin-5-yl}-1H-pyrazol-1-yl)cyclobutanecarbonitrile] was tested, and the pIC50 [1] was 6.18, the pIC50 [2] was < 5.00 and the pIC50 [3] was 5.46. For the same compound, the pIC50 [4] was < 5.00.

With `Cn1nc(-c2cc3ncccc3c(-c3ccn([C@]4(CC#N)C[C@@H](C#N)C4)n3)n2)cc1CN` [Example 71, trans-3-(3-{7-[5-(aminomethyl)-1-methyl-1H-pyrazol-3-yl]-1,6-naphthyridin-5-yl}-1H-pyrazol-1-yl)-3-(cyanomethyl)cyclobutanecarbonitrile] the pIC50 [1] was 6.96, the pIC50 [2] was 5.43 and the pIC50 [3] was 6.69. The pIC50 [4] was 5.10.

Work on `N#CCC1(n2ccc(-c3nc(-c4cc5n(n4)CCNC5)cc4ncccc34)n2)CC(C#N)C1` (stereo not drawn) [Example 72, cis-3-(cyanomethyl)-3-{3-[7-(4,5,6,7-tetrahydropyrazolo[1,5-a]pyrazin-2-yl)-1,6-naphthyridin-5-yl]-1H-pyrazol-1-yl}cyclobutanecarbonitrile] yielded a pIC50 [1] of 7.55, a pIC50 [2] of 6.17 and a pIC50 [3] of 7.32. The pIC50 [4] was 5.29.

Compound `N#CC[C@]1(n2ccc(-c3nc(-c4cc5n(n4)CCNC5)cc4ncccc34)n2)C[C@H](C#N)C1` [Example 73, trans-3-(cyanomethyl)-3-{3-[7-(4,5,6,7-tetrahydropyrazolo[1,5-a]pyrazin-2-yl)-1,6-naphthyridin-5-yl]-1H-pyrazol-1-yl}cyclobutanecarbonitrile] has a pIC50 [1] of 7.48, a pIC50 [2] of 5.33 and a pIC50 [3] of 6.69. The pIC50 [4] was < 5.00.

`N#CCC1(n2ccc(-c3nc(-c4cn[nH]c4)cc4ncccc34)n2)CN(CC(F)(F)F)C1` [Example 74, [3-{3-[7-(1H-pyrazol-4-yl)-1,6-naphthyridin-5-yl]-1H-pyrazol-1-yl}-1-(2,2,2-trifluoroethyl)azetidin-3-yl]acetonitrile] was tested, and the pIC50 [1] was 7.89, the pIC50 [2] was 6.66 and the pIC50 [3] was 6.57. For the same compound, the pIC50 [4] was 5.02.

With `CS(=O)(=O)N1CC(CC#N)(n2ccc(-c3nc(-c4cn[nH]c4)cc4ncccc34)n2)C1` [Example 75, [1-(methylsulfonyl)-3-{3-[7-(1H-pyrazol-4-yl)-1,6-naphthyridin-5-yl]-1H-pyrazol-1-yl}azetidin-3-yl]acetonitrile] the pIC50 [1] was 7.34, the pIC50 [2] was 6.17 and the pIC50 [3] was 6.35. For the same compound, the pIC50 [4] was < 5.00.

In the case of `N#CCC1(n2ccc(-c3nc(-c4cn[nH]c4)cc4ncccc34)n2)CC(C#N)C1` (stereo not drawn) [Example 76, cis-3-(cyanomethyl)-3-{3-[7-(1H-pyrazol-4-yl)-1,6-naphthyridin-5-yl]-1H-pyrazol-1-yl}cyclobutanecarbonitrile], the pIC50 [1] was 8.15, the pIC50 [2] was 7.46 and the pIC50 [3] was 7.48. It also gave a pIC50 [4] of 5.81.

`N#CC[C@]1(n2ccc(-c3nc(-c4cn[nH]c4)cc4ncccc34)n2)C[C@H](C#N)C1` [Example 77, trans-3-(cyanomethyl)-3-{3-[7-(1H-pyrazol-4-yl)-1,6-naphthyridin-5-yl]-1H-pyrazol-1-yl}cyclobutanecarbonitrile] showed a pIC50 [1] of 7.60, a pIC50 [2] of 6.53 and a pIC50 [3] of 6.62. For the same compound, the pIC50 [4] was < 5.00.

`N#CC[C@H]1C[C@](CC#N)(n2ccc(-c3nc(-c4cn[nH]c4)cc4ncccc34)n2)C1` [Example 79, 2,2′-(trans-1-{3-[7-(1H-pyrazol-4-yl)-1,6-naphthyridin-5-yl]-1H-pyrazol-1-yl}cyclobutane-1,3-diyl)diacetonitrile] gave a pIC50 [1] of 7.13, a pIC50 [2] of 5.98 and a pIC50 [3] of 6.11. The pIC50 [4] was < 5.00.

`CO[C@H]1C[C@@](CC#N)(n2ccc(-c3nc(-c4cn[nH]c4)cc4ncccc34)n2)C1` [Example 80, (cis-3-methoxy-1-{3-[7-(1H-pyrazol-4-yl)-1,6-naphthyridin-5-yl]-1H-pyrazol-1-yl}cyclobutyl)acetonitrile] showed a pIC50 [1] of 7.33, a pIC50 [2] of 5.97 and a pIC50 [3] of 6.03. The pIC50 [4] was < 5.00.

In the case of `CO[C@H]1C[C@](CC#N)(n2ccc(-c3nc(-c4cn[nH]c4)cc4ncccc34)n2)C1` [Example 81, (trans-3-methoxy-1-{3-[7-(1H-pyrazol-4-yl)-1,6-naphthyridin-5-yl]-1H-pyrazol-1-yl}cyclobutyl)acetonitrile], the pIC50 [1] was 7.00, the pIC50 [2] was 5.51 and the pIC50 [3] was 5.66. For the same compound, the pIC50 [4] was < 5.00.

`CC(C)(O)[C@H]1C[C@@](CC#N)(n2ccc(-c3nc(-c4cn[nH]c4)cc4ncccc34)n2)C1` [Example 82, [cis-3-(2-hydroxpropan-2-yl)-1-{3-[7-(1H-pyrazol-4-yl)-1,6-naphthyridin-5-yl]-1H-pyrazol-1-yl}cyclobutyl]acetonitrile] showed a pIC50 [1] of 6.38, a pIC50 [2] of 5.45 and a pIC50 [3] of 5.62. The pIC50 [4] was < 5.00.

`C[C@]1(C#N)C[C@](CC#N)(n2ccc(-c3nc(-c4cn[nH]c4)cc4ncccc34)n2)C1` [Example 83, trans-3-(cyanomethyl)-1-methyl-3-{3-[7-(1H-pyrazol-4-yl)-1,6-naphthyridin-5-yl]-1H-pyrazol-1-yl}cyclobutanecarbonitrile] gave a pIC50 [1] of 6.39, a pIC50 [2] of 5.65 and a pIC50 [3] of 5.61. The pIC50 [4] was < 5.00.

With `C[C@]1(C#N)C[C@@](CC#N)(n2ccc(-c3nc(-c4cn[nH]c4)cc4ncccc34)n2)C1` [Example 84, cis-3-(cyanomethyl)-1-methyl-3-{3-[7-(1H-pyrazol-4-yl)-1,6-naphthyridin-5-yl]-1H-pyrazol-1-yl}cyclobutanecarbonitrile] the pIC50 [1] was 7.66, the pIC50 [2] was 6.62 and the pIC50 [3] was 6.76. For the same compound, the pIC50 [4] was < 5.00.

`N#CC[C@]1(n2ccc(-c3nc(-c4cn[nH]c4)cc4ncccc34)n2)C[C@@H](c2ccn[nH]2)C1` [Example 85, [cis-3-(1H-pyrazol-5-yl)-1-{3-[7-(1H-pyrazol-4-yl)-1,6-naphthyridin-5-yl]-1H-pyrazol-1-yl}cyclobutyl]acetonitrile] gave a pIC50 [1] of 7.52, a pIC50 [2] of 6.78 and a pIC50 [3] of 6.99. For the same compound, the pIC50 [4] was 5.28.

Compound `Cc1n[nH]cc1-c1cc2ncccc2c(-c2ccn(C3(CC#N)CN(S(C)(=O)=O)C3)n2)n1` [Example 88, [3-{3-[7-(3-methyl-1H-pyrazol-4-yl)-1,6-naphthyridin-5-yl]-1H-pyrazol-1-yl}-1-(methylsulfonyl)azetidin-3-yl]acetonitrile] has a pIC50 [1] of 7.22, a pIC50 [2] of 5.79 and a pIC50 [3] of 6.06. For the same compound, the pIC50 [4] was < 5.00.
